In patent US10624887B2, “Compositions of (-)-17-(cyclobutylmethyl)morphinan-3,14,-diol” (priority 2010, dated 2020):
Entries after “also recorded” stand apart in the source; their conditions may differ. Read-outs that look alike come from different tables or passages of the source.

What was measured:
[1] = Tail flick test, intra-gastric, intra-ileal and intra-colonic butorphanol; format: in vivo
Description: FIG. 13: Time-effect curves depicting antinociceptive effect of intra-gastric, intra-ileal and intra-colonic butorphanol in the tail flick test. The percent maximum possible effect (% MPE) is plotted versus time.
FIG. 14: Time-effect curves depicting antinociceptive effect of intra-gastric, intra-ileal and intra-colonic butorphanol in the tail flick test. The percent maximum possible effect (% MPE) is plotted versus time.

[2] = cited from earlier work; for duration of analgesic effect (median time to requesting rescue analgesia): acute postsurgical pain
κ-opioid receptors = κ-opioid receptors (Homo sapiens, UniProt P41145); conditions: cited from earlier work
δ-opioid receptor = δ-opioid receptor (Homo sapiens, UniProt P41143); conditions: cited from earlier work
[3] = test system: streptozotocin (STZ) induced diabetes neuropathy; assay: Streptozotocin induced diabetic neuropathy, mechanical allodynia (von Frey filaments); format: in vivo, Wistar rats; conditions: STZ diabetic neuropathic rats
Method: The aim of this study was to evaluate the effect of oral administration of butorphanol in rats with streptozotocin (STZ) induced diabetes neuropathy. A single injection of streptozotocin (STZ) (40-70 mg/kg, i.p.) was used to induce diabetes in rats. The primary measurements were made mechanical and thermal allodynia designed to detect effects of the treatment(s) on neuropathic pain.
(§1) Wistar rats weighing 250±20 g were maintained on standard laboratory diet and having free access to tap water ad lib were employed in the present study. They were housed in the animal house and were exposed to 12 hr cycle of light and dark. The experiments were conducted in a semi-sound proof laboratory. Care of the animals was in accordance with guidelines for experimentation on animals.
The STZ-induced diabetes model was adapted from Arison et al (1967). […]
Mechano-allodynia was assessed using von Frey filaments. […] Both hind paws were tested for allodynia and the average of the two was recorded. Results were expressed in grams and determined before and 30 and 60 min after the administration of the test drugs.
(§2) The anti-nociceptive effect was plotted assessed having time (relative to dosing time point) on the x-axis and percent maximum possible effect (% MPE) on the y-axis. The results were expressed as mean±standard error of means (S.E.M.). […]

[4] = test system: vincristine induced painful neuropathy; assay: Vincristine induced painful neuropathy, mechanical allodynia (von Frey filaments); format: in vivo, Wistar rats; conditions: vincristine neuropathic rats
Description: The aim of this study was to evaluate the effect of oral administration of butorphanol in rats with vincristine induced painful neuropathy. The primary measurements were made mechanical and thermal allodynia designed to detect effects of the treatment(s) on neuropathic pain.
as §1
The vincristine model was adapted from Authier et al (1999). Rats were injected on five alternate days (day 4, 6, 8, 10 & 12) with vincristine (200 μg/kg i.p.) using an injection volume of 2 ml/kg. […]
Mechano-allodynia was assessed using von Frey filaments. […] Both hind paws were tested for allodynia and the average of the two was recorded as data. Results were expressed in grams and determined before and 30 and 60 min after the administration of the test drugs.
as §2

[5] = cited from earlier work

Sequence of κ-opioid receptors (P41145 whole entry): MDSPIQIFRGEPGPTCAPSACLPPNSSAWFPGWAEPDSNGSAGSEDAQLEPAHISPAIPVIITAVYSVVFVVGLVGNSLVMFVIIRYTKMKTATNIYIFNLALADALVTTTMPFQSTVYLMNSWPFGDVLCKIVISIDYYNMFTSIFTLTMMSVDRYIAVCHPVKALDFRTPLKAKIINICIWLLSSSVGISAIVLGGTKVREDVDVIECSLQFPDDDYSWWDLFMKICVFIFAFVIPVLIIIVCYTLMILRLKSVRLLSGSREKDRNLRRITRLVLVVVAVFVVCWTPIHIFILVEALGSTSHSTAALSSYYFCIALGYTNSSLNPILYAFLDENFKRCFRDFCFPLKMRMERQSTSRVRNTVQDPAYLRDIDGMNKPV
Sequence of δ-opioid receptor (P41143 whole entry): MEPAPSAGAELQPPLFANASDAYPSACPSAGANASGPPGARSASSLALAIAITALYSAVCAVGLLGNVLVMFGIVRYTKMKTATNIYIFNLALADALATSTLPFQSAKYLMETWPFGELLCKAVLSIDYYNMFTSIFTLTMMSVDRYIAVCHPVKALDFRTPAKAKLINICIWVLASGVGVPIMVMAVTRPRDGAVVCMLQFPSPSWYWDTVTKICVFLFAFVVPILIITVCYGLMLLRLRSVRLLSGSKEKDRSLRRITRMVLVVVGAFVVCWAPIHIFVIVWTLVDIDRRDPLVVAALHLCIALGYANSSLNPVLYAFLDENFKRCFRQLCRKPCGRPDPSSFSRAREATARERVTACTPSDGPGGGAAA

For `Oc1ccc2c(c1)[C@@]13CCCC[C@@]1(O)[C@@H](C2)N(CC1CCC1)CC3` [butorphanol, (−)17-(Cyclobutylmethyl)morphinan-3,14-diol], which “antinociceptive effect, position of the % MPE time-effect curve” value ([1]; intra-colonic) is on record?
Its value is “Top curve”.

What about the “antinociceptive effect, position of the % MPE time-effect curve” value ([1]; intra-gastric) of the same compound?
The value was “bottom curve”.

And the “antinociceptive effect, position of the % MPE time-effect curve” value ([1]; intra-ileal)?
Its value is “second from top curve”.

What about the “duration of analgesic effect (median time to requesting rescue analgesia)” value ([2]; 1 mg intranasal dose) of the same compound?
The value was “less than 2 hours”.

What about the “subjects requiring rescue analgesia during the first 6 hours of observation” value ([2]; 1 mg intranasal dose) of the same compound?
Its value is “about 90%”.

What about the “duration of analgesic effect (median time to requesting rescue analgesia)” value ([2]; 2 mg intranasal dose) of the same compound?
Its value is “less than 2 hours”.

What about the “subjects requiring rescue analgesia during the first 6 hours of observation” value ([2]; 2 mg intranasal dose) of the same compound?
The value was “about 80%”.

What about the “activity at κ-opioid receptors” value (κ-opioid receptors) of the same compound?
The value was “pure agonist”.

What about the “activity at the δ-opioid receptor” value (δ-opioid receptor) of the same compound?
Its value is “preponderantly antagonist activity”.

And the mechanical withdrawal threshold ([3]; oral 1, 3, 10, 30 mg/kg, FIG. 19)?
Its mechanical withdrawal threshold is “dose dependent increase; also recorded: significant increase”.

What about the “time of peak effect post-administration (mechanical allodynia)” value ([3]; oral) of the same compound?
The value was 30 min.

What about the mechanical withdrawal threshold ([4]; oral 1, 3, 10, 30 mg/kg, FIG. 15) of the same compound?
Its mechanical withdrawal threshold is “dose dependent increase; also recorded: significant increase”.

And the “time of peak effect post-administration (mechanical allodynia)” value ([4]; oral)?
The value was 30 min.

What about the mean half-life ([5]; in vivo) of the same compound?
Its mean half-life is “about 5 hours”.

What about the oral bioavailability ([5]; widely reported) of the same compound?
The oral bioavailability was “poor”.
